# Data as given in patent publication US8304418B2, “Pyrazolopyrimidinone kinase inhibitor” (Agennix AG, priority 2007, dated 2012).
# Where “and” joins values, the source holds several entries; their conditions need not be identical. Equal values may be shown once. Read-outs that look alike come from different tables or passages of the source.
# Key:
# [1] = tested on: human A2780 ovarian tumor cells
# Method: Compound P (as hydrochloric acid salt) was formulated in 30% PEG300/70% water, and Compound I (as hydrochloric acid salt) was formulated in 20% PEG300/80% D5W (5% dextrose water) and administered by oral gavage twice every day for 10 days (bid×10), while the Cytoxan control which was administered i.p. in saline every two days over a period of 10 days (q2 d×5): […]
# H460 NSCLC = conditions: for LCK ± CI (95%) (Td: 2.6 d) / Toxic Mortality / Max % TGI (d): H460; for Toxic Mortality: N=10; for Max % TGI (d): day 13
# Method: (§2) Xenograft Tumor-Models: 100 athymic nu/nu female mice (6-8 weeks old) from CRL were allowed to acclimate for 4 days. […] The 3rd passage of cells with approximate 90% confluence was used for these experiments. Briefly, on Day 0, mice were inoculated with 0.1 ml (total 5×10^6 cells) of the respective cell-type as a cell suspension (50×10^6 cells/ml) by subcutaneous injection into the fat pad area near the mammary gland under light anesthesia. When the average tumor weight in all mice reached over 100 mg (day 10), 80 animals with an average tumor size of 130 mg were selected and were randomly divided into 8 groups.
# (§3) A 20 G gavage needle was used for the oral treatment.
# (§4) Tumor growth and body weight were monitored and recorded three times a week. Tumors were measured by determining the length and width of the tumor with a digital caliper. Tumor weight was estimated using the following formula: Tumor Weight (mg)=(w^2×1)×0.52 where w=width and l=length in mm of the tumor.
# (§5) Experimental treatment may cause partial regression (PR) or complete regression (CR) of tumors. PR is defined when the tumor size is 50% or less than the starting (day 1) size but greater than 0.0 mg for three consecutive measurements during the course of the study. CR occurs when there is no measurable tumor mass for three consecutive measurements. Cures are defined when CR are maintained until the completion of the experiment.
# (§6) Mice were sacrificed when their tumors reached the 1000 mm^3 endpoint volume. Treatment efficacy was determined as Log Cell Kill (LCK).
# (§7) Toxic deaths are defined as deaths caused by compound treatment and not by advanced disease state. […] Non-tumor related deaths after this point are recorded, but not considered toxic deaths.
# (§8) Briefly, the empirical distributions of T and Td were derived from B=1000 realisations of random selection of n individual animals with replacement from the set i=1, . . . , n of the appropriate group of mice containing n evaluable animals, estimating the mean tumor size for such selection of animals for each time-point, and linear regression analysis from a semi-log plot of such averages against time. Dead mice and mice with no measurable tumor size were treated as missing data and were ignored when calculating the average.
# [2] = tested on: HCT116 colon carcinoma cells
# Method: as §2, §3, §4, §5, §6, §7, §8
# [3] = Solubility assay at pH 7.4; assay type: physicochemical; conditions: pH 7.4, aqueous buffer
# Method: (§1) The assays used for determining the properties of the kinase inhibitors were performed in accordance with standard procedures well known to those skilled in the art. For example, assays for determining inhibitory activity on CDKs or in cellular assays are described in WO 00/218962, WO 2005/026129, and WO 2005/063765. Solubility assays at pH 7.4 were essentially performed as described by Avdeef, A. in Pharmacokinetic Optimization in Drug Research; Testa, B.; van de Waterbeemd, H.; Folkers, G.; Guy, R. Eds.; Wiley-VHC: Zurich, 2001; pp 305-326. PAMPA permeability assays at pH 7.4 were essentially performed as described in Kansy et al., J. Med. Chem. 41: 1007-10, 1998.
# [4] = tested on: human A2780 ovarian tumor cells; remark: listed apart in the source
# Method: as §2, §3, §4, §5, §6, §7, §8
# [5] = tested on: cell lines A2780, HCT-116, HT-29, HepG2, NCI/ADR-RES, OVCAR3, H460, IMR-90, T98G, A549 among others; assay: Inhibition of proliferation in a set of cancer-model cell lines; assay type: cell-based; conditions: units (μM and nM) printed inside the value, read-out: IC50 values, inhibition of proliferation (range over cell lines)
# Method: as §1
# [6] = PAMPA permeability assay at pH 7.4; assay type: in vitro ADME
# Method: as §1
# [7] = HCT116, 100 [93] mg/kg po qdx10
# [8] = 30 [28] mg/kg po bidx10, day 10
structure (smiles),measurement,setting,value
"O=P1(N(CCCl)CCCl)NCCCO1 (stereo not shown) [Cytoxan, cyclophosphamide]",LCK ± CI (95%) (Td: 2.1 d),[1]; 100 mg/kg ip q2dx5,3.56 ± 0.43 and 3.56
same,Cure,"[1]; 100 mg/kg ip q2dx5, N=10",0
same,Toxic Mortality,"[1]; 100 mg/kg ip q2dx5, N=10",0
same,Max % BW Loss (d),"[1]; 100 mg/kg ip q2dx5, day 10",5.9 (10) %
same,Max % TGI (d),"[1]; 100 mg/kg ip q2dx5, day 13",98 (13) %
same,CR,"[1]; 100 mg/kg ip q2dx5, mice with complete regression, N=10",5
same,PR,"[1]; 100 mg/kg ip q2dx5, mice with partial regression, N=10",5
"CC(C)c1nn(-c2c(Cl)cccc2Cl)c2nc(Cc3ccc(CN4CCCC4)c(O)c3)[nH]c(=O)c12 [Compound P, 1-(2,6-dichlorophenyl)-6-(3-hydroxy-4-pyrrolidinomethyl-phenyl)methyl-3-isopropyl-pyrazolo[3,4-d]pyrimidin-4-one]",LCK ± CI (95%) (Td: 2.6 d),H460 NSCLC; 40 [37] mg/kg po qdx10,0.22 ± 0.12 and 0.22
same,Toxic Mortality,H460 NSCLC; 40 [37] mg/kg po qdx10,0
same,Max % TGI (d),H460 NSCLC; 40 [37] mg/kg po qdx10,29.6 (13) %
same,LCK ± CI (95%) (Td: 2.6 d),H460 NSCLC; 70 [65] mg/kg po qdx10,0.26 ± 0.12 and 0.26
same,Toxic Mortality,H460 NSCLC; 70 [65] mg/kg po qdx10,0
same,Max % TGI (d),H460 NSCLC; 70 [65] mg/kg po qdx10,33.9 (13) %
same,LCK ± CI (95%) (Td: 2.6 d),H460 NSCLC; 100 [93] mg/kg po qdx10,0.54 ± 0.17 and 0.48 and 0.54
same,Toxic Mortality,H460 NSCLC; 100 [93] mg/kg po qdx10,0
same,Max % TGI (d),H460 NSCLC; 100 [93] mg/kg po qdx10,48.7 (13) %
same,Max % BW Loss (d),"H460 NSCLC; mouse, in vivo, po",1.0 (8) % and 0% and 7.4 (13) %
same,LCK ± CI (95%) (Td: 6.8 d),"[2]; HCT116, 40 [37] mg/kg po qdx10",0.23 ± 0.11 and 0.23
same,Max % TGI (d),"[2]; HCT116, 40 [37] mg/kg po qdx10, day 20",36.2 (20) %
same,LCK ± CI (95%) (Td: 6.8 d),"[2]; HCT116, 70 [65] mg/kg po qdx10",0.41 ± 0.22 and 0.41
same,Max % TGI (d),"[2]; HCT116, 70 [65] mg/kg po qdx10, day 32",50.2 (32) %
same,LCK ± CI (95%) (Td: 6.8 d),[2]; [7],0.38 ± 0.13 and 0.38
same,Toxic Mortality,[2]; [7],1/10
same,Max % TGI (d),"[2]; HCT116, 100 [93] mg/kg po qdx10, day 16",60.1 (16) %
same,Max % BW Loss (d),"[2]; mouse, in vivo, po",17.3 (16) %
same,solubility,[3],~210 µM
same,LCK ± CI (95%) (Td: 1.7 d),[4]; 40 [37] mg/kg po qdx10,0.34 ± 0.21 and 0.34
same,Toxic Mortality,"[4]; 40 [37] mg/kg po qdx10, N=10",0
same,Max % TGI (d),"[4]; 40 [37] mg/kg po qdx10, day 11",46.2 (11) %
same,LCK ± CI (95%) (Td: 1.7 d),[4]; 70 [65] mg/kg po qdx10,0.75 ± 0.46 and 0.75
same,Toxic Mortality,"[4]; 70 [65] mg/kg po qdx10, N=10",0
same,Max % TGI (d),"[4]; 70 [65] mg/kg po qdx10, day 11",61.1 (11) %
same,LCK ± CI (95%) (Td: 1.7 d),[4]; 100 [93] mg/kg po qdx9,1.78 ± 0.56 and 1.78
same,Toxic Mortality,[4]; 100 [93] mg/kg po qdx9,1/10
same,Max % TGI (d),"[4]; 100 [93] mg/kg po qdx9, day 11",83.9 (11) %
same,LCK ± CI (95%) (Td: 2.1 d),[1]; 15 [14] mg/kg po bidx10,0.20 ± 0.16 and 0.20
same,Toxic Mortality,"[1]; 15 [14] mg/kg po bidx10, N=10",0
same,Max % TGI (d),"[1]; 15 [14] mg/kg po bidx10, day 10",34 (10) %
same,Max % BW Loss (d),"[1]; 15 [14 free base] mg/kg po bidx10, HCl salt, day 6",0 (6) %
same,LCK ± CI (95%) (Td: 2.1 d),[1]; 30 [28] mg/kg po bidx10,0.44 ± 0.19 and 0.44
same,Toxic Mortality,"[1]; 30 [28] mg/kg po bidx10, N=10",0
same,Max % BW Loss (d),[1]; [8],0.1 (10) %
same,Max % TGI (d),[1]; [8],54 (10) %
same,LCK ± CI (95%) (Td: 2.1 d),[1]; 50 [47] mg/kg po bidx10,1.06 ± 0.48 and 1.06
same,Toxic Mortality,"[1]; 50 [47] mg/kg po bidx10, N=10",0
same,Max % TGI (d),"[1]; 50 [47] mg/kg po bidx10, day 13",81 (13) %
same,Max % BW Loss (d),"[1]; 50 [47] mg/kg po bidx10, day 15",4.7 (15) %
same,IC50,[5],0.016 to 1.6 µM
same,permeability in a PAMPA assay,[6],about 57%
